From patent US20060233873A1, “Dispersion of taste masked crystals or granules of active substances, chewable soft capsules filled with said dispersion, and process for preparing same” (priority 2003, published 2006)

Assay: Solubility of the active in lipophilic vehicles at 25° C., HPLC method
Details: oil or lipid
Description: In this example, lipophilic vehicles with different solubilizing powers for dextromethorphan HBr were tested.

Work on `COc1ccc2c(c1)[C@]13CCCC[C@@H]1[C@H](C2)N(C)CC3` [dextromethorphan HBr] yielded a solubility (in Dimethicone 100 silicone oil) of less than 1 µg/mL, a solubility (in medium chain triglycerides Mygliol 812N) of 120 µg/mL and a solubility (in paraffin oil) of roughly 1 µg/mL. It also gave a solubility (in soya oil) of roughly 6 µg/mL.
